Strand notation (5' to 3'): a small letter for the sugar, then the base; units joined by * are phosphorothioate-linked, units joined directly phosphodiester-linked; [ ] holds rarer units or linkages, { } end groups; capitals alone tell only the bases. e = 2'-O-(2-methoxyethyl) (MOE); [5mC] = 5-methylcytosine; d = 2'-deoxy (DNA)
Tests used:
Type in all cases: cell-based
mouse RANKL mRNA [1] = assay: Antisense inhibition of mouse RANKL mRNA in C2C12 cells: dose response (Table 5); conditions: relative to untreated control
Protocol: Cells were seeded into 24-well plates (Falcon-353047 at a density of ˜10,000 cells/cm^2 for use in antisense oligonucleotide transfection.
Cells are treated and data are obtained in triplicate. […] Cells were harvested 16-24 hours after oligonucleotide treatment.
Probes and primers to mouse RANKL were designed to hybridize to a mouse RANKL sequence, using published sequence information (GenBank accession number AF013170.1, incorporated herein as SEQ ID NO:ll). For mouse RANKL the PCR primers were: • forward primer: […] (SEQ ID NO:12) • reverse primer: […] (SEQ ID NO: 13) and • the PCR probe was: FAM-[…]-TAMRA (SEQ ID NO: 14) where FAM is the fluorescent reporter dye and TAMRA is the quencher dye. For mouse GAPDH the PCR primers were: • forward primer: […](SEQ ID NO:15) • reverse primer: […](SEQ ID NO:16) and the • PCR probe was: 5′ JOE-[…]-TAMRA 3′ (SEQ ID NO: 17) where JOE is the fluorescent reporter dye and TAMRA is the quencher dye.
In accordance with the present invention, a subset of the antisense oligonucleotides in Example 16 was further investigated in dose-response studies. The oligonucleotides used in this investigation were ISIS 180812 (SEQ ID NO: 178), ISIS 180814 (SEQ ID NO: 180), ISIS 180819 (SEQ ID NO: 185), ISIS 180828 (SEQ ID NO: 194) and the control oligonucleotide ISIS 101757 ([…], SEQ ID NO: 355). […] All cytidine residues are 5-methylcytidines.
C2C12 cells were treated with the oligonucleotides at 10, 50, 75, 100, and 150 nM as described in other examples herein. […] The results are expressed as percent inhibition relative to the untreated control. The data, shown in Table 5, are averages from two experiments and illustrate the oligonucleotides of the present invention are able to downregulate RANKL mRNA expression in a dose-dependent manner.

mouse RANKL mRNA [2] = assay: Antisense inhibition of mouse RANKL mRNA levels in C2C12 cells, quantitative real-time PCR (Table 2); design: concentration or dose not given beside the values; conditions: averages from three experiments
Summary of the method: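 C2C12 cells seeded at ~10,000 cells/cm^2, treated with antisense oligonucleotides (all C as 5-methylcytidine) in triplicate and harvested 16-24 h later. Mouse RANKL mRNA quantified by real-time RT-PCR with a FAM/TAMRA probe, with mouse GAPDH (JOE/TAMRA probe) as reference.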

RANKL mRNA [3] = assay: Antisense inhibition of RANKL mRNA expression followed by PTH treatment in primary mouse osteoblast cells: dose response (Table 8); conditions: 10 nM PTH last 2 h, relative to PTH alone
Protocol: Primary mouse osteoblasts were prepared from calvaria of neonatal mice purchased from Charles River Laboratories. […] Cells were not passaged. Cells were seeded onto 6-well plates (Falcon-Primaria #353846) at a density of 50,000 cells/well for use in antisense oligonucleotide transfection.
In a further embodiment of this invention, the effect of RANKL antisense oligonucleotides and PTH treatment on the expression of RANKL was determined in primary osteoblast cells isolated from mice skull caps.
ISIS 143624 ([…], SEQ ID NO: 348) was used as a control oligonucleotide. […] All cytidine residues are 5-methylcytidines.
Primary osteoblastic cells were transfected for 24 hours with either Isis 180819 (SEQ ID NO: 185) or the control oligo ISIS 143624 (SEQ ID NO: 348) at a dose of […], 125 nM, 250 nM, or 500 nM by the methods described herein but using the transfection reagent FuGENE 6 (Roche Applied Science, Indianapolis, Ind.). During the last 2 hours of oligonucleotide transfection, the cells were treated with 10 nM PTH. The RNA was then harvested and the expression levels of […] were measured by the methods described herein. The results are expressed as percent inhibition relative to PTH treatment alone and represent the average from three experiments.

RANKL mRNA [4] = assay: as above; conditions: 63 nM oligonucleotide 24 h, 10 nM PTH last 2 h, relative to PTH alone

Question: What does the source list for “180819 (antisense eT*eG*e[5mC]*eA*eG*dG*dT*d[5mC]*d[5mC]*d[5mC]*dA*dG*d[5mC]*dG*d[5mC]*eA*eA*eT*eG*eT) [compound 180819]”?
Answer: % Inhibition of RANKL mRNA (mouse RANKL mRNA [1]; 10 nM oligonucleotide): 41%; % Inhibition of RANKL mRNA (mouse RANKL mRNA [1]; 50 nM oligonucleotide): 39%; % Inhibition of RANKL mRNA (mouse RANKL mRNA [1]; 75 nM oligonucleotide): 57%; % Inhibition of RANKL mRNA (mouse RANKL mRNA [1]; 100 nM oligonucleotide): 71%; % Inhibition of RANKL mRNA (mouse RANKL mRNA [1]; 150 nM oligonucleotide): 75%; % INHIB (inhibition of mouse RANKL mRNA levels) (mouse RANKL mRNA [2]): 66%; % RANKL mRNA inhibition (RANKL mRNA [3]; 125 nM oligonucleotide 24 h): 39%; % RANKL mRNA inhibition (RANKL mRNA [3]; 250 nM oligonucleotide 24 h): 71%; % RANKL mRNA inhibition (RANKL mRNA [3]; 500 nM oligonucleotide 24 h): 85%; % RANKL mRNA inhibition (RANKL mRNA [4]): 19%
